# Experiments:
# C57BL/6 mice = test: Bw measurements, long-term toxicity by daily i.p. injections; assay type: in vivo; details: 100 or 200 mg kg−1 bw daily i.p. Day 14 to 38, vs DMSO
# Protocol: To estimate the long-term toxicity of YC-001 in mice, we administered YC-001 to C57BL/6 mice by daily i.p. injections from Day 14 to 38 after birth with one of two doses, either 100 mg kg^−1 or 200 mg kg^−1 bw. Equivalent volumes of DMSO were injected into control groups. Bws of treated mice were measured daily. Each dosage group contained 3 mice including males and females.
# [1] = Metabolic stability in mouse liver microsomes; assay type: in vitro ADME; details: 5 μM, with NADPH, vs verapamil
# Protocol: A standard metabolic stability assay was performed in the presence of mouse or human liver microsomes. YC-001 (5 μM) was incubated with the microsomes (0.125 mg mL^−1) resuspended in 0.2 mL of PBS buffer, pH 7.4 composed of 10 mM Na2HPO4, 1.8 mM KH2PO4, 137 mM NaCl, and 2.7 mM KCl. The enzymatic reaction to produce oxidized metabolites was initiated by addition of NADPH (1 mM). Samples were incubated at 37° C. for up to 240 min. Incubation without the cofactor was conducted in parallel to assess NADPH-independent clearance. The reactions were stopped with 0.2 mL of methanol followed by 0.3 mL chloroform. Residual YC-001 was extracted by vigorous shaking. To facilitate phase separation, the samples were spun down for 2 min, 15,000×g. The chloroform fraction was collected, dried down, and the extracted organic compounds were redissolved in 0.2 mL of methanol. To quantify YC-001, the samples were injected onto an Eclipse XDB-C18 column (4.6×150 mm, 5 μm) (Agilent Technologies) equilibrated with solvent composed of 30% acetonitrile in water (v/v), and 0.1% formic acid. YC-001 was eluted in a gradient of acetonitrile in water (30-100%) developed within 15 min at a flow rate of 1 mL min^−1, detected at 350 nm, and quantified by correlating peak areas with known quantities of an original synthetic standard. […]
# human clarin-1 N48K = target: T1, human clarin-1 N48K (Homo sapiens, UniProt P58418, N48K); test: Image-based analysis of clarin-1 N48K-Venus in HEK 293 cells; assay type: cell-based
# T1 sequence (P58418 1-232 N48K): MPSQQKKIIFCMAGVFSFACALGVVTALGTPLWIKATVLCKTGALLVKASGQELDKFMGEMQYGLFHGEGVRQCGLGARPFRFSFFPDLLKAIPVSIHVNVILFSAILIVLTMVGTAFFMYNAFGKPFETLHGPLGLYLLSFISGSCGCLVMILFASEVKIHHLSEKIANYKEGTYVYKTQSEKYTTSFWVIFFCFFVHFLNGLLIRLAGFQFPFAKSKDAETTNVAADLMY
# Protocol: HEK 293 stable cells co-expressing human clarin-1 N48K-Venus fluorescent protein and DsRed-Express-DR fusion protein were obtained from Dr. Yoshikazu Imanishi at Case Western Reserve University (CWRU). Cells were cultured in DMEM medium with 10% FBS following guidelines from ATCC. To test effects of YC-001 treatments on clarin-1 N48K-Venus amounts in these cells, an image-based assay was performed. Briefly, cells were seeded at 20,000 cells per well in 40 μL per well DMEM medium with 10% FBS in a 384-well PerkinElmer View plate coated with poly-D-lysine and cultured at 37° C. with 5% CO2 for 24 h. Cells then were treated with 10 μL per well DMEM medium with 10% FBS containing 5× the final concentration of tested compounds. […] Each compound was tested with 10 doses in a 2-fold dilution series, featuring 3 biological replicates. The 384-well plate was put back for incubation at 37° C. with 5% CO2. After 24 h of exposure to test compounds, the plate was removed, and the medium was aspirated and replaced by 20 μL per well of 4% paraformaldehyde for fixation at RT for 20 min. […] Images were analyzed by the Columbus storage and analysis system (Perkin Elmer). Hoechst33342 fluorescence images were used to define nuclei and count cells. […] YFP and DsRed fluorescence intensities per cell were measured in each well.
smiles,measurement,setting,value
O=C1OCC(c2ccc(Cl)s2)=C1c1cccs1 [YC-001],behavioral or bw growth changes,C57BL/6 mice,no obvious behavioral or bw growth changes
same,initial clearance in liver microsomes,[1],even higher initial clearance
same,amount or stability of the clarin-1 N48K mutant,human clarin-1 N48K,did not affect the amount or stability

# Source: patent publication US12251373B2, “Compounds and methods of treating retinal degeneration” (CASE WESTERN RESERVE UNIVERSITY, priority 2017, dated 2025)
